Active and inactive are the calls of the source. Rule as the data show it, for most assays here: actives have a measured EC50 and inactives only a lower limit.
Tested on: not listed separately
Experiment: cytotoxicity toward NIH3T3 fibroblasts, dose response, counter-screen, cell-based, ATP luminescence, mouse fibroblasts (AID 2010);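 also: cells exposed to compound for about 90 hours before reading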
Type: functional
Details: not given

SMILES | EC50
CC(C)N(CCNC(=O)c1nn(Cc2ccccc2)c(=O)c2ccccc12)C(C)C | > 60 µM (not active)
CCOc1cc(-c2nc(-c3cc([N+](=O)[O-])ccc3C)c(-c3ccccc3)[nH]2)ccc1O | > 60 µM (inconclusive)
CC(C(=O)Nc1ccccc1C(=O)O)n1c(C(F)(F)F)nc2ccccc21 (centres undefined) | > 60 µM (inconclusive)
CCOC(=O)N1CCN(C(=O)CC(C(=O)N2CCc3ccccc32)n2ccnc2)CC1 (centres undefined) | > 60 µM (not active)
Cc1cccc(OCCCCCn2ccnc2)c1 | > 30 µM (not active)
CCCCN1C(=O)NC(=O)/C(=C(/C)NCCCN(CC)CC)C1=O | > 60 µM (not active)
O=C(Nc1ccccc1)Nc1ccccc1-n1ccnc1 | > 60 µM (not active)
COc1ccc(C(=O)c2ccc(N3CCN(C(=O)c4ccc(F)cc4)CC3)c(F)c2)cc1Br | 8.95 µM (active)
Cc1ccc2nc(NC(=O)C3CCN(S(=O)(=O)c4cc([N+](=O)[O-])ccc4Cl)CC3)sc2c1 | > 60 µM (not active)
CCN(CC)P(=O)(Nc1ccc(SC(F)F)cc1)c1ccc(N(C)C)cc1NC(=O)c1ccco1 (centres undefined) | > 60 µM (not active)
Cc1ccc(/C=N\NC(=O)c2ccc(Cn3cc(Br)c([N+](=O)[O-])n3)o2)o1 | > 60 µM (not active)

Target: Cytochrome P450 3A4 (Homo sapiens, UniProt P08684);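 also: CYP3A4 tested as one member of a cytochrome P450 panel screen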
Details: not given

Chain of Cytochrome P450 3A4 (P08684 whole entry): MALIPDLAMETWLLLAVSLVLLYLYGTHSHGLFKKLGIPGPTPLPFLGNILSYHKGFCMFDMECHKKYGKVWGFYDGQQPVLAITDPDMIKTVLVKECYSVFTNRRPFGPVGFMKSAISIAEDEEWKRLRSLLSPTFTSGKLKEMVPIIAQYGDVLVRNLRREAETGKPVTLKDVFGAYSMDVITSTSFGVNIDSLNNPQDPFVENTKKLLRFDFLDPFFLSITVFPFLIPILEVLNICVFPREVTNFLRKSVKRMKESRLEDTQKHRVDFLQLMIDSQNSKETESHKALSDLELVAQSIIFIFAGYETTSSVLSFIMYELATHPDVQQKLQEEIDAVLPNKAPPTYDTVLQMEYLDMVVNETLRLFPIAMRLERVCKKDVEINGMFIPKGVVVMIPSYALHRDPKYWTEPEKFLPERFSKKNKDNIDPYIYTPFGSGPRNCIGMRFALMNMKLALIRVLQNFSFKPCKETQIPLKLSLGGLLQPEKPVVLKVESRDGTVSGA

SMILES | AC50
O=C1S/C(=C/c2ccc(N3CCOCC3)o2)C(=O)N1Cc1ccc(F)cc1 | 7.94 µM (inconclusive)
CS(=O)(=O)N1CC(C(=O)NC2CC2)Oc2ccc(Cl)cc21 (centres undefined) | 25.1 µM (inconclusive)
N#Cc1ccc(CN2CCCC3(CCN(C(=O)Oc4ccccc4)CC3)C2)cc1 | 15.8 µM (inconclusive)
O=C(O)CCC(=O)N1CCN(c2ccccn2)CC1 | 3.55 µM (inconclusive)
O=C(c1ccc2c(=O)n(CC3CCCO3)c(=S)[nH]c2c1)N1CCN(c2ccccc2)CC1 (centres undefined) | 7.08 µM (inconclusive)
Cn1ncc(C#N)c1NC(=O)C1CC(c2ccc(Cl)cc2)=NO1 (centres undefined) | 20 µM (inconclusive)

Tested on: not listed separately
Experiment: inhibitors of intracellular T. cruzi replication, confirmation, NIH3T3 host cells, beta-gal luminescence (AID 2044);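 also: intracellular parasites grown in NIH/3T3 mouse fibroblasts as host cells; luminescent beta-galactosidase reporter signal from transgenic T. cruzi replicating inside host cells; inhibitors lower the luminescence signal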
Type: functional, cell-based
Details: not given

SMILES | EC50
CC(C)N(CCNC(=O)c1nn(Cc2ccccc2)c(=O)c2ccccc12)C(C)C | 1.46 µM (active)
CCOc1cc(-c2nc(-c3cc([N+](=O)[O-])ccc3C)c(-c3ccccc3)[nH]2)ccc1O | 2.7 µM (active)
CC(C(=O)Nc1ccccc1C(=O)O)n1c(C(F)(F)F)nc2ccccc21 (centres undefined) | 9.95 µM (active)
CCOC(=O)N1CCN(C(=O)CC(C(=O)N2CCc3ccccc32)n2ccnc2)CC1 (centres undefined) | 1.82 µM (active)
Cc1cccc(OCCCCCn2ccnc2)c1 | 0.443 µM (active)
CCCCN1C(=O)NC(=O)/C(=C(/C)NCCCN(CC)CC)C1=O | 1.66 µM (active)
O=C(Nc1ccccc1)Nc1ccccc1-n1ccnc1 | 2.53 µM (active)
COc1ccc(C(=O)c2ccc(N3CCN(C(=O)c4ccc(F)cc4)CC3)c(F)c2)cc1Br | 2.37 µM (active)
Cc1ccc2nc(NC(=O)C3CCN(S(=O)(=O)c4cc([N+](=O)[O-])ccc4Cl)CC3)sc2c1 | 0.528 µM (active)
CCN(CC)P(=O)(Nc1ccc(SC(F)F)cc1)c1ccc(N(C)C)cc1NC(=O)c1ccco1 (centres undefined) | 1.99 µM (active)
Cc1ccc(/C=N\NC(=O)c2ccc(Cn3cc(Br)c([N+](=O)[O-])n3)o2)o1 | 0.878 µM (active)

Target: T1, Corticotropin-releasing factor receptor 2/Corticotropin-releasing factor-binding protein (Homo sapiens, UniProt P24387+Q13324)
T1 sequence (Q13324 whole entry): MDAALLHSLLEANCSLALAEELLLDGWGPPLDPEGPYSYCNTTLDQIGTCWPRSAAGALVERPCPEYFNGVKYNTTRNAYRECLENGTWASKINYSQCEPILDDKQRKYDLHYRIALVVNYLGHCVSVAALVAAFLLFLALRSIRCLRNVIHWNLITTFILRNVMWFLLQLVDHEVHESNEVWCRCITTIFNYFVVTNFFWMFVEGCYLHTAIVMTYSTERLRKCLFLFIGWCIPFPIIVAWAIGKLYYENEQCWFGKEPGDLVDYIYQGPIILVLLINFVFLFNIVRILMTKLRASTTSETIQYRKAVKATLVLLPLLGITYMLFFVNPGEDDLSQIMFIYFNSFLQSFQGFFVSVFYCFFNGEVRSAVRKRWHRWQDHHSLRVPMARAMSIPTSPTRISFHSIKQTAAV
T1 sequence (P24387 whole entry): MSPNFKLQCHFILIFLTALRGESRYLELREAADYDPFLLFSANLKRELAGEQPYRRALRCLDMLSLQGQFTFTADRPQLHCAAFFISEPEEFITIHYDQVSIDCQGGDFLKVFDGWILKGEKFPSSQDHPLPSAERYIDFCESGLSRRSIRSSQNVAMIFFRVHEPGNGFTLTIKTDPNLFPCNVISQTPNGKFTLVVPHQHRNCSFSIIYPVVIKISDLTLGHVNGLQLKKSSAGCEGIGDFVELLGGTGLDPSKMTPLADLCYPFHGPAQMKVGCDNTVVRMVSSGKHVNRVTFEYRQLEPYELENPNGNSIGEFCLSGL
Experiment: activators of CRF receptor 2 with binding protein – uHTS hits, confirmation (AID 602473)
Type: functional
Details: read-out: EC50_Mean

SMILES | EC50
O=C1S/C(=C/c2ccc(N3CCOCC3)o2)C(=O)N1Cc1ccc(F)cc1 | 5.79 µM (active)
CC(C)N1CCc2c(sc(NC(=O)CCc3ccccc3)c2C(N)=O)C1 | > 53 µM (inactive)
CC(C)(C)C(=O)Nc1sc2c(c1C#N)CCN(Cc1ccccc1)C2 | 10.2 µM (active)
N#Cc1cc(C(=O)c2ccccc2O)cn(-c2ccc(Cl)cc2)c1=O | > 53 µM (inactive)
CCc1ccc(OCCOCC(O)CNC(C)(C)C)cc1 (centres undefined) | > 53 µM (inactive)
CC1(C)CSC(NCc2ccccc2)=N1 | 2.84 µM (active)
CC(C)C[C@H]1CN=C(Nc2ccccc2)N1CCc1cccc(F)c1 | 6.43 µM (active)

Target: Cytochrome P450 2C9 (Homo sapiens, UniProt P11712)
Details: not given

Chain of Cytochrome P450 2C9 (P11712 whole entry): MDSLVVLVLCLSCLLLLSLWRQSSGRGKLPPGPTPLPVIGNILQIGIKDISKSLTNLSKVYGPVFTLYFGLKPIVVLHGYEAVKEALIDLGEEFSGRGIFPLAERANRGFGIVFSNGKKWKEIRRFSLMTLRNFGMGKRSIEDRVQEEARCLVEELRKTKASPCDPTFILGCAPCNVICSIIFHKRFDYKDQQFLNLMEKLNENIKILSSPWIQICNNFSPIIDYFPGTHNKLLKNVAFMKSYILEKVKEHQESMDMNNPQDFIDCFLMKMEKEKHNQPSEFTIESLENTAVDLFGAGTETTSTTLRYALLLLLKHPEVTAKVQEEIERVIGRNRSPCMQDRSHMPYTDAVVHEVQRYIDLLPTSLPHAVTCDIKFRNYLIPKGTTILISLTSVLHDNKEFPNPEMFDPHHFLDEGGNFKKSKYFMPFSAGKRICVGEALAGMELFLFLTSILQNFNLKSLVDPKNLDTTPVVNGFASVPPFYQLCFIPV

SMILES | AC50
O[C@H](CCCN1CCN(c2ncc(F)cn2)CC1)c1ccc(F)cc1 | 12.6 µM (inconclusive)
O=c1c(-c2ccccc2)nc2cnc(Oc3ccccc3)nc2n1Cc1cccs1 | 3.16 µM (inconclusive)
CS(=O)(=O)N1CC(C(=O)NC2CC2)Oc2ccc(Cl)cc21 (centres undefined) | 10 µM (inconclusive)
N#Cc1ccc(CN2CCCC3(CCN(C(=O)Oc4ccccc4)CC3)C2)cc1 | 39.8 µM (inconclusive)
O=C(O)CCC(=O)N1CCN(c2ccccn2)CC1 | 0.891 µM (inconclusive)
C=CCSc1nnc(NC(=O)COc2ccc3ccccc3c2)s1 | 8.91 µM (inconclusive)
O=C(c1ccc2c(=O)n(CC3CCCO3)c(=S)[nH]c2c1)N1CCN(c2ccccc2)CC1 (centres undefined) | 7.94 µM (inconclusive)
CC(C)CN1CCC2(CC1)CCN(C(=O)c1cc(C(F)(F)F)cc(C(F)(F)F)c1)CC2 | 12.6 µM (inconclusive)
Cc1noc(N)c1C(=O)Nc1ccc(F)cc1 | 3.98 µM (inconclusive)
Cn1ncc(C#N)c1NC(=O)C1CC(c2ccc(Cl)cc2)=NO1 (centres undefined) | 12.6 µM (inconclusive)
COc1ccc(C(=O)NC2CCN(C(S)=Nc3cccc(C)c3)CC2)cc1 | 25.1 µM (inconclusive)

Tested on: Streptococcus sp. 'group A'
Experiment: growth inhibition of control SK(-) GAS strain, dose response, counter-screen for streptokinase expression inhibitor project, luminescence, kanamycin, BacTiterGlo, confirmation (AID 1900)
Type: functional, organism-based
Details: not given

SMILES | EC50
CCC1CCCCN1S(=O)(=O)c1ccc(C(=O)Nc2nnc(C3=COCCO3)o2)cc1 (centres undefined) | 4.61 µM (active)
COc1ccc(Br)cc1S(=O)(=O)Nc1nc[nH]n1 | > 150 µM (not active)
N#Cc1c(Nc2cccc(F)c2)sc2c(O)cc(O)nc12 | 1.19 µM (active)
COc1ccc(-c2[nH]nc(C)c2-c2ccc(Cl)cc2)c(O)c1 | 9.86 µM (active)

Target: T2, Heat shock factor protein 1 (Mus musculus, UniProt P38532)
T2 sequence (P38532 whole entry): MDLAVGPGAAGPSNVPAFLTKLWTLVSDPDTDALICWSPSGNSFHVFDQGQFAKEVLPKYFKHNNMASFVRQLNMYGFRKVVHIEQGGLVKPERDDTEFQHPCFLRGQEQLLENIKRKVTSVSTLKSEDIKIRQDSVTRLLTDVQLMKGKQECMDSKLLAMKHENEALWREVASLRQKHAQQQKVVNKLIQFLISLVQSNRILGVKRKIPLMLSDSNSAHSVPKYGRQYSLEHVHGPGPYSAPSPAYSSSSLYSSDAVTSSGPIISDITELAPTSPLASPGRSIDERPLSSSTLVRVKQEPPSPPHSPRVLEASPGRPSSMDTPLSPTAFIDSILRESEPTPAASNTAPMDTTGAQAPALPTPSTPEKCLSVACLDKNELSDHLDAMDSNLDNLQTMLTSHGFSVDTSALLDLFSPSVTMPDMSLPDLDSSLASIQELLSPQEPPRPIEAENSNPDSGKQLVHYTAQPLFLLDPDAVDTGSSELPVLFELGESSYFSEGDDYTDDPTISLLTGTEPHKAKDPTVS
Experiment: inhibition of MG132-induced HSE-luciferase signal, confirmation, cell-based, NIH3T3, luminescence, dose retest (AID 2382);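 also: NIH3T3 fibroblasts with HSF1-driven luciferase reporter stressed by proteasome inhibitor MG132; luminescence from HSF1-driven luciferase expression after 8 hours of MG132 stress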
Type: functional
Details: not given

SMILES | EC50
COc1cc(C(=O)Nc2ccccc2NC(=O)c2cc(OC)c(OC)c(OC)c2)cc(OC)c1OC | > 195 µM (not active)
CN(NC1OC(=O)c2ccccc21)c1ccc(C(F)(F)F)cc1[N+](=O)[O-] (centres undefined) | > 195 µM (not active)
Nc1ncnc2[nH]c(N3CCN(C(=O)c4ccccc4)CC3)nc12 | > 195 µM (not active)
CCCNC(=O)c1ccc(COc2ccc(CCC)cc2OC)o1 | > 195 µM (not active)
Cc1cc(-c2ccc(C)c(S(=O)(=O)NCCC(C)N3CCCCCC3)c2)on1 (centres undefined) | > 195 µM (not active)
CC1(C)Cc2c(C#N)c(NCCO)nc(-c3ccco3)c2CO1 | > 195 µM (not active)
O=C(NCc1ccccc1C(F)(F)F)C1CC(c2ccc(C(F)(F)F)cc2)=NO1 (centres undefined) | > 195 µM (not active)
CC(CCc1ccccc1)NC(=O)CCNS(=O)(=O)c1ccccc1 (centres undefined) | > 195 µM (not active)
O=C(COC(=O)/C=C/c1ccc(C(F)(F)F)cc1)NC1CC1 | > 195 µM (not active)
C/C(=N/NC(=O)CNC(=O)c1ccccn1)c1ccc([N+](=O)[O-])cc1 | > 195 µM (not active)
COc1ccc(/C=N/N(C)C2=NCCN2)c(OC)c1OC | > 195 µM (not active)
Cc1ccc(/N=C/c2ccc[nH]2)c(O)c1 | > 195 µM (not active)

Target: T3, Cytochrome P450 1A2 (Homo sapiens, UniProt P05177);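 also: PubChem cytochrome P450 panel assay, CYP1A2 panel member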
T3 sequence (P05177 whole entry): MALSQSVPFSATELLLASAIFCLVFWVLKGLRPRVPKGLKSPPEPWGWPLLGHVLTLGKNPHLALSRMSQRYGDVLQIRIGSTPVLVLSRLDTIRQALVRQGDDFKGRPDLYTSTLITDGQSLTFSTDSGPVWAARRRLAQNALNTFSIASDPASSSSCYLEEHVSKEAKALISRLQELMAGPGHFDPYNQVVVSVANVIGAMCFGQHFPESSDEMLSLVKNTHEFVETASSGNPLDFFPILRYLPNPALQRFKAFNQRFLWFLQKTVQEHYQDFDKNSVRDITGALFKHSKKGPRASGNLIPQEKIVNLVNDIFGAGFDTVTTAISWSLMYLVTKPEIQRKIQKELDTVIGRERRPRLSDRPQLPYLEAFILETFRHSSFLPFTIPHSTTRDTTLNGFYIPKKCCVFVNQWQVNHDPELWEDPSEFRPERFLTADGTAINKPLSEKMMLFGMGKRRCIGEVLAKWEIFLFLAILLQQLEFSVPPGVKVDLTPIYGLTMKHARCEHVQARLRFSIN
Details: not given

SMILES | AC50
O[C@H](CCCN1CCN(c2ncc(F)cn2)CC1)c1ccc(F)cc1 | 31.6 µM (inconclusive)
O=c1c(-c2ccccc2)nc2cnc(Oc3ccccc3)nc2n1Cc1cccs1 | 2.51 µM (inconclusive)
Cn1ncc(C#N)c1NC(=O)C1CC(c2ccc(Cl)cc2)=NO1 (centres undefined) | 31.6 µM (inconclusive)

Tested on: Streptococcus
Experiment: Group A Streptococcus viability loss, dose response, counter-screen for streptokinase expression inhibitor project, luminescence, BacTiterGlo (AID 1915);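 also: potency for reduction of bacterial viability or growth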
Type: functional, organism-based
Details: not given

SMILES | EC50
CCC1CCCCN1S(=O)(=O)c1ccc(C(=O)Nc2nnc(C3=COCCO3)o2)cc1 (centres undefined) | 10.7 µM (active)
COc1ccc(Br)cc1S(=O)(=O)Nc1nc[nH]n1 | > 150 µM (not active)
N#Cc1c(Nc2cccc(F)c2)sc2c(O)cc(O)nc12 | 5.71 µM (active)
COc1ccc(-c2[nH]nc(C)c2-c2ccc(Cl)cc2)c(O)c1 | 11.1 µM (active)
